This passage reports MIC results from patent US3961075A, “Ether-linked quaternary ammonium compositions” (Colgate-Palmolive Company, priority 1975, dated 1976).

Each structure is given as a SMILES string. A value given as a limit tells only on which side of the number the result lay.

Format in all cases: cell-based
For one experiment, the system named is S. aureus. The experiment in a line: standard test tube serial dilution test, S. aureus. The conditions noted are these: Staphylococcus aureus, broth serial dilution, read-out: Minimum Inhibitory Concentration. The method, then: (§1) The anti-microbial nature of the instant novel compounds was shown by a standard test tube serial dilution test in which an appropriate number of test tubes of broth containing decreasing concentrations of the test agent was innoculated with the test organism. After a suitable period of incubation, the tubes were examined for the presence or absence of growth. The activity of the test agent was the lowest concentration which inhibited the growth of the organism and is expressed as the minimal inhibitory concentration in ug/ml.

For another experiment, the system named is Str. mitis. The experiment in a line: standard test tube serial dilution test, Str. mitis. The conditions noted are these: Streptococcus mitis, broth serial dilution, read-out: Minimum Inhibitory Concentration. The method, then: as §1
In another experiment the test system is C. albicans. The experiment in a line: standard test tube serial dilution test, C. albicans. The conditions noted are these: Candida albicans, broth serial dilution, read-out: Minimum Inhibitory Concentration. The procedure:
as §1

In another experiment the test system is P. ovale. The experiment in a line: standard test tube serial dilution test, P. ovale. The conditions noted are these: broth serial dilution, read-out: Minimum Inhibitory Concentration. The procedure:
as §1

A further experiment relates to T. mentagrophytes. The experiment in a line: standard test tube serial dilution test, T. mentagrophytes. The note with it: Trichophyton mentagrophytes, broth serial dilution, read-out: Minimum Inhibitory Concentration. The procedure:
as §1

In another experiment the test system is Ps. aeruginosa. The experiment in a line: standard test tube serial dilution test, Ps. aeruginosa. The conditions noted are these: Pseudomonas aeruginosa, broth serial dilution, read-out: Minimum Inhibitory Concentration. The method, then:
as §1

For a further experiment, the system named is A. niger. The experiment in a line: standard test tube serial dilution test, A. niger. The conditions noted are these: Aspergillus niger, broth serial dilution, read-out: Minimum Inhibitory Concentration. The method, then: as §1
A further experiment deals with E. coli. The experiment in a line: standard test tube serial dilution test, E. coli. The conditions noted are these: Escherichia coli, broth serial dilution, read-out: Minimum Inhibitory Concentration. The method, then: as §1

`CCCCCCCCCCCC[N+](C)(C)CCOC12CC3CC(CC(C3)C1)C2` [C12 H25, 2-(1^1-adamantyloxy)ethyldimethyldodecyl ammonium bromide]: the MIC in the experiment on S. aureus was 0.39 µg/mL; with Str. mitis, 0.19 µg/mL; in the experiment on C. albicans it was 1.56 µg/mL; in the experiment on P. ovale, above 50 µg/mL; with T. mentagrophytes it was 3.12 µg/mL; with Ps. aeruginosa, above 25 µg/mL. The MIC in the experiment on A. niger turned out to be 50 µg/mL; with E. coli, 12.5 µg/mL.
With `CCCCCCCCCCCCCC[N+](C)(C)CCOC12CC3CC(CC(C3)C1)C2` [C14 H29, 2(1^1 -adamantyloxy)ethyldimethyltetradecylammonium bromide], the MIC in the experiment on S. aureus was 0.78 µg/mL; in the experiment on Str. mitis, 0.39 µg/mL; in the experiment with C. albicans it was 1.56 µg/mL; with P. ovale it was above 50 µg/mL; in the experiment with T. mentagrophytes, 6.25 µg/mL; in the experiment on Ps. aeruginosa, above 25 µg/mL. The MIC in the experiment on A. niger was 50 µg/mL; in the experiment on E. coli, 12.5 µg/mL.
